According to ChEMBL document CHEMBL4257571, “Discovery of 5-(2-chloro-4'-(1H-imidazol-1-yl)-[1,1'-biphenyl]-4-yl)-1H-tetrazole as potent and orally efficacious S-nitrosoglutathione reductase (GSNOR) inhibitors for the potential treatment of COPD” (Bioorg Med Chem Lett, 2018):
In brackets after ≈: the same amount, converted by molar mass.

What was measured:
[1] = target: All-trans-retinol dehydrogenase [NAD(+)] ADH1B (Homo sapiens, UniProt P00325); test: Inhibition of ADH1B (unknown origin) assessed as reduction in NADH production by spectrophotometric analysis
[2] = tested on: Mus musculus; test: Anti-inflammatory activity in C57BL/6 mouse model of cigarette smoke induced chronic obstructive pulmonary disease assessed as macrophages count in bronchoalveolar lavage at 10 mg/kg, po administered once daily for 7 days 1 hr prior to first smoke exposure and measured on day 8 after last smoke exposure post single drug treatment by Leishman's staining based assay; format: functional
[3] = Protein binding in human plasma at 10 uM by LC/MS/MS based equilibrium dialysis analysis; format: ADME, cell-free; conditions: read-out: PPB
[4] = Inhibition of MT3 receptor (unknown origin) at 10 uM relative to control
[5] = tested on: Mus musculus; test: Anti-inflammatory activity in C57BL/6 mouse model of cigarette smoke induced chronic obstructive pulmonary disease assessed as macrophages count in bronchoalveolar lavage at 30 mg/kg, po administered once daily for 7 days 1 hr prior to first smoke exposure and measured on day 8 after last smoke exposure post single drug treatment by Leishman's staining based assay; format: functional
[6] = target: T1, CYP1A2 (Homo sapiens, UniProt P05177); test: Inhibition of CYP1A2 in human liver microsomes at 10 uM after 20 mins in presence of NADPH by LC/MS/MS analysis relative to control; format: ADME; conditions: liver microsomes
T1 sequence (P05177 whole entry): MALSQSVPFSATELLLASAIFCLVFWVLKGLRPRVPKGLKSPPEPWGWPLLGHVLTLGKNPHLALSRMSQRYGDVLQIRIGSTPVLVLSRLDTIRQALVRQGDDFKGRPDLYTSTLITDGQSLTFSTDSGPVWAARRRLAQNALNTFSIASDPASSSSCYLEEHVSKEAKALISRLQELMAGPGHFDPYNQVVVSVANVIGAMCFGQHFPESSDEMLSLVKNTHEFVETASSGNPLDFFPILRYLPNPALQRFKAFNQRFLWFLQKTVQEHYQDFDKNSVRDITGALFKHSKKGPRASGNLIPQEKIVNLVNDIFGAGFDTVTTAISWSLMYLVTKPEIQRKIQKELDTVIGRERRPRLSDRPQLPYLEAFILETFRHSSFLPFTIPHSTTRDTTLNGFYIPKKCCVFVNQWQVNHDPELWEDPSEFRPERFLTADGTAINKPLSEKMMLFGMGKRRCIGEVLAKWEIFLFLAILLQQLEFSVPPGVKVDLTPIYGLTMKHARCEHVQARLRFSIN

[7] = Aqueous solubility of compound in fasted state stimulated intestinal fluid at pH 6.2; format: physicochemical; conditions: fasted state simulated intestinal fluid
[8] = tested on: Mus musculus; test: Anti-inflammatory activity in C57BL/6 mouse model of cigarette smoke induced chronic obstructive pulmonary disease assessed as macrophages count in bronchoalveolar lavage at 3 mg/kg, po administered once daily for 7 days 1 hr prior to first smoke exposure and measured on day 8 after last smoke exposure post single drug treatment by Leishman's staining based assay; format: functional
[9] = target: hERG (KCNH2) (Homo sapiens, UniProt Q12809); test: Inhibition of human ERG at 10 uM by patch clamp assay relative to control
[10] = Ratio of drug uptake in lung to plasma of C57/BL6 mouse at 3 mg/kg, iv or 30 mg/kg, po; format: ADME, organism-based
[11] = Tmax in C57/BL6 mouse at 30 mg/kg, po; format: ADME, organism-based; conditions: in vivo
[12] = organism: Rattus norvegicus; test: Displacement of [35S]dATPalphaS to rat P2Y receptor at 10 uM after 60 mins by scintillation counting analysis relative to control
[13] = target: T2, Carbonyl reductase [NADPH] 1 (Homo sapiens) (UniProt P16152); test: Inhibition of CBR1 (unknown origin) assessed as reduction in NADP+ production at 10 uM by spectrophotometric analysis relative to control
T2 sequence (whole entry): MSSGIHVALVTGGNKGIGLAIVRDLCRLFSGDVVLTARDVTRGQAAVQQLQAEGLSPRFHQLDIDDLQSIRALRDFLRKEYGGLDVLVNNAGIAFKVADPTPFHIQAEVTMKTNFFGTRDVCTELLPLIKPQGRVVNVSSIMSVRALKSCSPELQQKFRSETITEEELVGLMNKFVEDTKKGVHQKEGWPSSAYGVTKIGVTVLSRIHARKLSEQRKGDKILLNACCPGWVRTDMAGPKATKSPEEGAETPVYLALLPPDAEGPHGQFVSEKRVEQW

[14] = Effective permeability of the compound by PAMPA assay; format: ADME; conditions: read-out: Peff
[15] = tested on: Mus musculus; test: Anti-inflammatory activity in C57BL/6 mouse model of cigarette smoke induced chronic obstructive pulmonary disease assessed as neutrophil count in bronchoalveolar lavage at 3 mg/kg, po administered once daily for 7 days 1 hr prior to first smoke exposure and measured on day 8 after last smoke exposure post single drug treatment by Leishman's staining based assay; format: functional
[16] = target: CYP2D6 (Homo sapiens, UniProt P10635); test: Inhibition of CYP2D6 in human liver microsomes at 10 uM after 20 mins in presence of NADPH by LC/MS/MS analysis relative to control; format: ADME; conditions: liver microsomes
[17] = tested on: Mus musculus; test: Anti-inflammatory activity in C57BL/6 mouse model of cigarette smoke induced chronic obstructive pulmonary disease assessed as neutrophil count in bronchoalveolar lavage at 10 mg/kg, po administered once daily for 7 days 1 hr prior to first smoke exposure and measured on day 8 after last smoke exposure post single drug treatment by Leishman's staining based assay; format: functional
[18] = Metabolic stability of human liver microsomes assessed as parent compound remaining at 0.1 uM after 60 mins in presence of NADPH by LC/MS/MS analysis; format: ADME, microsome; conditions: read-out: Stability
[19] = Metabolic stability of mouse liver microsomes assessed as parent compound remaining at 0.1 uM after 60 mins in presence of NADPH by LC/MS/MS analysis; format: ADME, microsome; conditions: read-out: Stability
[20] = tested on: Mus musculus; test: Anti-inflammatory activity in C57BL/6 mouse model of cigarette smoke induced chronic obstructive pulmonary disease assessed as total leukocyte count in bronchoalveolar lavage at 100 mg/kg, po administered once daily for 7 days 1 hr prior to first smoke exposure and measured on day 8 after last smoke exposure post single drug treatment by hemocytometry; format: functional
[21] = organism: Bos taurus; test: Inhibition of bovine PDE6 at 10 uM using [3H]cGMP as substrate after 60 mins by scintillation counting analysis relative to control
[22] = Apparent permeability in human Calu3 cells; format: ADME, cell-based, Calu-3
[23] = target: CYP2C9 (Homo sapiens, UniProt P11712); test: Inhibition of CYP2C9 in human liver microsomes at 10 uM after 20 mins in presence of NADPH by LC/MS/MS analysis relative to control; format: ADME
[24] = organism: Homo sapiens; test: Inhibition of I2 receptor (unknown origin) at 10 uM relative to control
[25] = target: Alcohol dehydrogenase class-3 (Mus musculus, UniProt P28474); test: Inhibition of mouse GSNOR assessed as reduction in NADH consumption after 3 mins by spectrophotometric analysis
[26] = Metabolic stability of rat liver microsomes assessed as parent compound remaining at 0.1 uM after 60 mins in presence of NADPH by LC/MS/MS analysis; format: ADME, microsome; conditions: read-out: Stability

Sequence of Alcohol dehydrogenase class-3 (P28474 whole entry): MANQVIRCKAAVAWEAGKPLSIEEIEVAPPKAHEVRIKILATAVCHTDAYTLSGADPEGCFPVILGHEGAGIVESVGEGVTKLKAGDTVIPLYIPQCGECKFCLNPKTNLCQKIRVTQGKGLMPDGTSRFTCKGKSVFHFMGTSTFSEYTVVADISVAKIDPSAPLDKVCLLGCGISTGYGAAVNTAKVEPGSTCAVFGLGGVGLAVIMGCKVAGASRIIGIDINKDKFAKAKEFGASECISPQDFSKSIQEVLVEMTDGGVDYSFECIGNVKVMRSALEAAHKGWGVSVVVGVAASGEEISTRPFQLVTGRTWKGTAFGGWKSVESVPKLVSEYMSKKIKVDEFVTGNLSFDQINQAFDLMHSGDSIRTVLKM
Sequence of All-trans-retinol dehydrogenase [NAD(+)] ADH1B (P00325 whole entry): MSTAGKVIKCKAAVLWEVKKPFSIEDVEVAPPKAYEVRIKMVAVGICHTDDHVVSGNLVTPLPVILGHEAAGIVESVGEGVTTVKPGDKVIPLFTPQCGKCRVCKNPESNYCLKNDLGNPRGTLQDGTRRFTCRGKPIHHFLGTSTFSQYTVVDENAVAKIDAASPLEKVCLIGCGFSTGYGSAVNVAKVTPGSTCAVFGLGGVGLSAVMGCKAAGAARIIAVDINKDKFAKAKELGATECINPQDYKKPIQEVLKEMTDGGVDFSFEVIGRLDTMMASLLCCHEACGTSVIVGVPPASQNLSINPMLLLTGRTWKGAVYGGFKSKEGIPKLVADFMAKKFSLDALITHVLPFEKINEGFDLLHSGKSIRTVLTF
Sequence of CYP2C9 (P11712 whole entry): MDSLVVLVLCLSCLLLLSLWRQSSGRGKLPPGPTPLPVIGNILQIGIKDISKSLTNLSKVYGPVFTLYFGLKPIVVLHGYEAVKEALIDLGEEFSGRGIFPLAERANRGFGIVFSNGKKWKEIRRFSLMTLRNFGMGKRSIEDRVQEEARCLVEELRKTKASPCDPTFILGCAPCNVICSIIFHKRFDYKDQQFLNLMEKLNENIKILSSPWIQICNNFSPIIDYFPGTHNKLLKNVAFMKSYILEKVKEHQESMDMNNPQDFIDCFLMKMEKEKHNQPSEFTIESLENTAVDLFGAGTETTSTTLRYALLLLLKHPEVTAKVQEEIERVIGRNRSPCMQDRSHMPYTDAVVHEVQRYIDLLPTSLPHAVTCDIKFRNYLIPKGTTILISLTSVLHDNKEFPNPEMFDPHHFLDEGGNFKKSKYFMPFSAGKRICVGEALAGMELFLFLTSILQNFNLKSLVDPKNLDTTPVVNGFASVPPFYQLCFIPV
Sequence of hERG (KCNH2) (Q12809 whole entry): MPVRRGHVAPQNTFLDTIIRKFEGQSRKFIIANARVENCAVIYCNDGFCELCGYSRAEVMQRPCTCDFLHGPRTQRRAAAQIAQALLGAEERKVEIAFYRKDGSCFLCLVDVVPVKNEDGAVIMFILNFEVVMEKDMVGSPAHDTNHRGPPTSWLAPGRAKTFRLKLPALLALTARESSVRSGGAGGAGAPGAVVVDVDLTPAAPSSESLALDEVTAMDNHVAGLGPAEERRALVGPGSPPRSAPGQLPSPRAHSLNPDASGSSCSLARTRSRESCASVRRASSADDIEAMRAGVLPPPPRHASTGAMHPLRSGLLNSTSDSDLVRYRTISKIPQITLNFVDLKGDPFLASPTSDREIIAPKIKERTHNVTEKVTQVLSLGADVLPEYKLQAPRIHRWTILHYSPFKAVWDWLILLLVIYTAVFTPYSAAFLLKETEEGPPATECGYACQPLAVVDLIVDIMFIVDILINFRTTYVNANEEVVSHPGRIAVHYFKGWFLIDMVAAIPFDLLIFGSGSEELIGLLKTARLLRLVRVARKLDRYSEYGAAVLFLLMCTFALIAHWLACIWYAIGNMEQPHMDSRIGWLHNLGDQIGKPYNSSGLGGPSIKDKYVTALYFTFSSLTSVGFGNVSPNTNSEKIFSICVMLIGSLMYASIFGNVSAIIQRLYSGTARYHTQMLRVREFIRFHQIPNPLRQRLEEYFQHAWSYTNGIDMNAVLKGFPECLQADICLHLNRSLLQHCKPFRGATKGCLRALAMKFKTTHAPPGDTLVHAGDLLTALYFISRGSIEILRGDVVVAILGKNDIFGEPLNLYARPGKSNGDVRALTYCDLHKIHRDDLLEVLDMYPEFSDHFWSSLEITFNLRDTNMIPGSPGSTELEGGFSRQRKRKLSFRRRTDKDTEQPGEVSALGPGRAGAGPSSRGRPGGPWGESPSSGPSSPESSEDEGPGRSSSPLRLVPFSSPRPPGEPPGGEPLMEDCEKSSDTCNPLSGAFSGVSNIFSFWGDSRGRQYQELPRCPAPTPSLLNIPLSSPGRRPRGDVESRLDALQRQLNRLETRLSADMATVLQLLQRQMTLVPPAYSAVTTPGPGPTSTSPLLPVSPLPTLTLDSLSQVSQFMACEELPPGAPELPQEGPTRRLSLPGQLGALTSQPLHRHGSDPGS
Sequence of CYP2D6 (P10635 whole entry): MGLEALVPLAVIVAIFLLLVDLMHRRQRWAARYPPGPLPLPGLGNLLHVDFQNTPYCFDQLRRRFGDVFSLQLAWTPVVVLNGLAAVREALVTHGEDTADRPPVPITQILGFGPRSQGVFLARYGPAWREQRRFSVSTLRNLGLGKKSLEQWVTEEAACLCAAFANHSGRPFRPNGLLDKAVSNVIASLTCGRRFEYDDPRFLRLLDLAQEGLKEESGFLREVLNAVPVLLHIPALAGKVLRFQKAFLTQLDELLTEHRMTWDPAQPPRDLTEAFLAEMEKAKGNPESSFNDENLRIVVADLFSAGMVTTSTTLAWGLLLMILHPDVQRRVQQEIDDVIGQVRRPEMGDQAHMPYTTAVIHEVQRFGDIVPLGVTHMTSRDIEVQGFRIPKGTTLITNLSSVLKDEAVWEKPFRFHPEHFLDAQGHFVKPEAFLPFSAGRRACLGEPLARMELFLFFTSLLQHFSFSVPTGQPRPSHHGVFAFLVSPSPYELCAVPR

`Clc1cc(-c2nnn[nH]2)ccc1-c1ccc(-n2ccnc2)cc1` gave an IC50 [1] of 54 µM, an Activity [2] of 59% and a fraction unbound at 10 µM [3] of less than 0.005. For the same compound, the inhibition [4] was 100%, the Activity [5] was 61% and the inhibition at 20 min, 10 µM [6] was 32%. For the same compound, the solubility [7] was 3.5 µg/mL (≈ 10.8 µM), the Activity [8] was 45% and the inhibition at 10 µM [9] was 11%. It also gave a Kp [10] of 0.38, a Tmax [11] of 2 h and an inhibition [12] of 59%. It also gave an inhibition [13] of 24%, a Papp [14] of 0.12 ×10⁻⁶ cm/s and an Activity [15] of 19%. It also gave an inhibition at 20 min, 10 µM [16] of 52%, an Activity [17] of 25% and a remaining at 1 h, 0.1 µM [18] of 100%. The remaining at 1 h, 0.1 µM [19] was 43%, the Activity [20] was 53% and the inhibition [21] was 60%. It also gave a Papp [22] of 8.23 ×10⁻⁶ cm/s, an inhibition at 20 min, 10 µM [23] of 86% and an inhibition [24] of 88%. For the same compound, the IC50 [25] was 0.0071 µM and the remaining at 1 h, 0.1 µM [26] was 83%.
